Laboratory results published in patent publication US8981149B2, “Compounds modulating the hedgehog protein signaling pathway, marked forms thereof, and applications” (Centre National De La Recherche Scientifique, priority 2011, dated 2015).
Like-named read-outs stand apart in the source and are kept apart here.

Key:
C3H10T1/2 cells = assay: Differentiation of C3H10T1/2 cells induced by SAG, alkaline phosphatase (AP) activity; assay type: cell-based, mouse; details: Mus musculus, C3H 10T1/2
Description: The test compounds of formula (I) were dissolved in dimethylsulfoxide up to a concentration of 10 mM, then stored at a temperature of −20° C. until used.
The line of C3H10T1/2 pluripotent fibroblast cells (ATCC) was cultured in the conditions recommended by the ATCC. These cells were activated using 0.1 μM of SAG according to the methods described by Chen et al., Proc. Natl. Acad. Sci. USA, 2002, 99, 14071 and Frank-Kamenetsky et al., J. Biol., 2002, 1, 10.
Activation by SAG causes differentiation of the cell line and allows it to express alkaline phosphatase (AP). It was thus possible to measure the activity of the Hedgehog protein signalling pathway via measurement of the alkaline phosphatase (AP) activity.
The C3H10T1/2 cells were seeded on 96-well plates at a density of 5.10^3 cells per well, 24 hours before adding the test compounds at a concentration varying from 1 nM to 30 μM and in the presence of 0.1 μM of SAG, using DMEM (Dulbecco's Modified Eagle's Medium) with 10% fetal calf serum as culture medium. The tests were carried out in quadruplicate. The plates were then incubated for 5 to 6 days at a temperature of 37° C. under 5% CO2 atmosphere. The cells were then washed in cold phosphate buffer (“Phosphate Buffer Serum”: PBS), then lysed by sonication at 4° C. in 50 μL of a solution containing 0.9% of NaCl and 0.2% of Triton X-100.
Measurement of the alkaline phosphatase (AP) activity in the lysates thus obtained was then performed according to the method described by Pepinsky et al. (J. Biol. Chem., 1998, 273, 14037). After adding 100 μL of reaction buffer (200 mM Tris-HCl; pH 10.5; 0.4 M of 2-amino-2-methylpropanol and 8 mM of MgCl2) and 50 μL of substrate (4 mM of p-nitrophenyl disodium phosphate), the lysates were incubated at 37° C. for 30-60 min, then the optical density was read at a wavelength of 415 nm.

[1] = target: T1, human Smoothened receptor (Homo sapiens, UniProt Q99835); assay: Inhibition of binding of 3H-(7d) to membranes of HEK-hSmo cells; details: HEK-hSmo membranes
T1 construct: expressed in transfected cells
T1 sequence (Q99835 28-787): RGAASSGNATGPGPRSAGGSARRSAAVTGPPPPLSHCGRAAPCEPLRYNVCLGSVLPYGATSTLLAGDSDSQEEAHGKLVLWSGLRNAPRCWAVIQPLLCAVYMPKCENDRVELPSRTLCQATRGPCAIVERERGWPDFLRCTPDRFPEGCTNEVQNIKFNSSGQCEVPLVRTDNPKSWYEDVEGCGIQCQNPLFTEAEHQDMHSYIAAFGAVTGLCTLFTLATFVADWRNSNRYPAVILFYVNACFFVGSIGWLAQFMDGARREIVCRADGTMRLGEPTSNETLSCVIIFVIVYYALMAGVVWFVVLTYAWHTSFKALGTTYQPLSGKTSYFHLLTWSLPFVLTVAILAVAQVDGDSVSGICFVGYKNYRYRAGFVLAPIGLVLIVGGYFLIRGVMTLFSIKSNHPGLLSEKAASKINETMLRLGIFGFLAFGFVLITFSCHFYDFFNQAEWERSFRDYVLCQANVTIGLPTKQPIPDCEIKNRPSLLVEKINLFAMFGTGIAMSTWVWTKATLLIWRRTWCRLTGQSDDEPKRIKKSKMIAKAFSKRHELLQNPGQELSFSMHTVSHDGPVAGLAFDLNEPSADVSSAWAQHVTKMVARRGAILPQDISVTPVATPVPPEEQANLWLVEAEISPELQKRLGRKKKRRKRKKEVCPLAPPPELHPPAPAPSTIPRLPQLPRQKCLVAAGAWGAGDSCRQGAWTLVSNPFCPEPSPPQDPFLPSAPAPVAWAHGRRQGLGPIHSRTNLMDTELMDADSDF
Description: The binding test is carried out on membranes enriched with Smoothened receptor. Cells of the HEK-hSmo line were used for preparing these membranes. The cells are washed and recovered in iced PBS. After centrifugation at 100 g for 7 minutes at 4° C., the pellet is taken up in 10 times its volume of an iced buffer A (50 mM HEPES, pH 7.4, 1 mM EDTA) with addition of 10 μl of a cocktail of protease inhibitors (PEAK, Sigma) per ml of buffer, then it is homogenized using a Polytron grinding mill. After centrifugation at 500 g for 30 minutes at 4° C., which makes it possible to remove the nuclei from the cells, the supernatant is centrifuged again at 48 000 g for 45 min at 4° C. The pellet is taken up in 2 ml of buffer A with PEAK added, then the suspension is homogenized using a glass conical grinding mill and is passed through a 23 G needle. Finally, aliquots are placed in Eppendorf tubes and stored at −80° C. The concentration of total protein in the preparation is determined by Lowry's method using BSA for preparing the standard range.
The membranes are resuspended in a buffer (50 mM HEPES and 3 mM MgCl2) containing 0.2% of BSA. The tests of binding of ^3H-(7d) are carried out in polypropylene tubes. The membranes (2 μg of proteins) are incubated with the ^3H-(7d) in the presence or absence of the cold test compounds for 3 hours at 37° C. in a final volume of 400 μl. Incubation is stopped by immersing the tubes in iced water followed by rapid filtration (Brandel) through a glass fiber filtration membrane (GF/C) treated beforehand with 0.3% of polyethylenimine, which can reduce the nonspecific binding of the ^3H-(7d) to the filtration membrane. The radioactivity retained on the filter is measured in the presence of 3 ml of scintillating agent in a liquid scintillation counter.
In this experiment, the cold ligand competes with the radioactive ligand for binding to the receptor, and the affinity (Ki) of each cold ligand for the receptor can be analyzed based on the IC50 values deduced from the inhibition curves.

PCGs of rat cerebellum = assay: Proliferation of granule cell precursors (PCGs) of rat cerebellum induced by SAG, 3H-thymidine incorporation; assay type: cell-based; details: for IC50: proliferation induced by SAG (0.01 μM), 3H-thymidine incorporation, read-out: IC50 ± SEM, PCGs of rat cerebellum (3)
Description: The granule cell precursors (GCP) are isolated from cerebellums of rats (IFFA-CREDO, France), 8 days after birth (P8). The cerebellums are taken, cut into small pieces, placed in Krebs-Ringer buffer (120 mM NaCl, 5 mM KCl, 1 mM KH2PO4, 25 mM NaHCO3, 15 mM glucose, 0.04 mM phenol red) and incubated for 15 minutes at room temperature in a dissociation buffer composed of Krebs-Ringer with addition of 250 mg/ml of trypsin (Sigma, France). Enzymatic dissociation is stopped by adding an equal volume of Krebs-Ringer buffer containing 250 mg/ml of a trypsin inhibitor and 80 mg/ml of DNase (Sigma, France). The tissue is centrifuged at 100 g for 10 seconds and the pellet obtained is resuspended and triturated using Pasteur pipettes of decreasing diameter to obtain a suspension of isolated cells. This suspension is centrifuged at 200 g for 5 minutes and the pellet obtained is resuspended in Neurobasal medium supplemented with 1 mM of pyruvate, 2 mM L-glutamine, penicillin/streptomycin and 1% of supplement N2, 60 mg/ml N-acetyl cysteine and […] of bovine serum albumin (BSA, Sigma, France).
The cerebellar GCPs obtained are transferred to 96-well plates treated beforehand with poly-D-lysine at a density of 2.10^5 cells/well. SAG in the presence or absence of the other test compounds is added immediately. 12 hours before the end of culture, tritiated thymidine (^3H-thymidine) is added. The cells are aspirated and recovered on a glass fiber filter (GF/C) using an automated cell collector (Brandel, USA). The amount of radioactivity incorporated by the cells was quantified in the presence of a scintillating agent in a liquid scintillation counter (Wallac, USA).
The cerebellar PCGs proliferate in response to activation of the Shh signalling pathway, a response that can be inhibited by the Smo antagonists (Rohatgi et al., 2009, Proc. Natl. Acad. Sci. USA 106: 3196-201). We therefore analyzed the capacity of compound (7d) for inhibiting the proliferation of the PCGs of rat cerebellum in primary culture by measuring the incorporation of tritiated thymidine, a marker of DNA newly synthesized during the proliferation process.

Structure (SMILES): COc1cc(C(=O)NC(=N)Nc2ccc(C)c(NC(=O)c3ccc(CCc4ccccc4)cc3)c2)cc(OC)c1OC.Cl [Compound 7d, 3,4,5-trimethoxy-N—(N-(4-methyl-3-(4-phenethylbenzamido)phenyl)carbamimidoyl)benzamide hydrochloride]
- IC50 (C3H10T1/2 cells; AP activity, differentiation induced by SAG (0.1 μM), read-out: IC50 ± SEM, C3H10T1/2 cells (2)): 6 ± 1 nM
- IC50 (C3H10T1/2 cells; SAG 0.1 μM, Mean ± SEM, n ≧ 3, read-out: IC50, differentiation of C3H10T1/2 cells): 6 ± 1 nM
- IC50 (C3H10T1/2 cells; after induction by SAG at 0.1 μM, read-out: IC50, inhibition of alkaline phosphatase (AP) activity, differentiation of C3H10T1/2 cells): 6 ± 1 nM
- IC50 ([1]; 0.35 nM 3H-(7d), 3 hours at 37° C., read-out: IC50 ± SEM, binding of compound 3H-(7d)): 1.5 nM
- Ki ([1]; calculated from IC50, read-out: Ki ± SEM, binding of compound 3H-(7d)): 0.7 ± 0.1 nM
- IC50 (PCGs of rat cerebellum; Rattus norvegicus): 0.45 nM
- Type of antagonism on proliferation of PCGs (PCGs of rat cerebellum; induced by SAG (0.01 μM)): complete antagonist
- IC50 (PCGs of rat cerebellum; hydrochloride): 0.4 ± 0.1 nM
